Test results: patent publication US20260226101A1, “PEPTIDE WITH ANTI-INFLAMMATORY AND ANTI-MICROBIAL ACTIVITY” (priority 2023, published 2026)
Values joined by “and” are separate entries in the source; they are usually repeats but may differ in a detail not shown here. Equal values may be shown once. “Also recorded” adds a separate entry of the source. Ends that are not written are not given here.

Legend:
[1] = system: CLP-induced polymicrobial sepsis; assay: Cecal ligation and puncture (CLP) polymicrobial sepsis model; type: in vivo, BALB/c mice
Procedure: Polymicrobial sepsis was induced using the CLP method described by [Wendy E. Walker, 2021; Benjamim et al. 2000], with minor modifications and the anesthetic used. Initially, the Mice were derived of food for 12 h before the CLP procedure and then anesthetized by intraperitoneal injection of ketamine (80-100 mg/kg BW) and xylazine in a dose (5-10 mg/kg) (for 20 g mice ketamine of 0.2 ml and xylazine of 0.1 ml). according to [Machado et al. 2012]. under sterile conditions a midline abdominal incision was made and then, a laparotomy of 10 mm/1 cm was performed, where the abdomen of mice was routinely disinfected and cut open in the middle to expose the abdominal cavity, and the cecum was mobilized, was then ligated below the cecal valve at the distal end of the cecum, ¾ was ligated with a sterile No. 4 thread, and punctured (CLP) with a 20-gauge needle in 2 places at the center of the distal end of the occlusal cecum and squeezed gently to extrude a small amount of intestinal contents through the perforation site to induce sepsis. The cecum was located but not ligated or punctured in the control animals. The cecum was placed back into the peritoneal cavity, and the abdominal incision was then closed in two layers with absorbable ethilon suture 5.0, and the animals were resuscitated with 0.1-0.2 mL of normal saline by subcutaneous injection. The sham group of mice had the identical operation as the treated and disease control groups, which included opening the peritoneum and exposing the bowel but without ligation or needle perforation of the cecum. Betadine/tramadol was used to relieve the pain of mice after operation. During the surgery, the […] was applied to the eyes to prevent dryness of the eyes. All the animals were returned to their cages, where they had free access to food and water. After 2 h of CLP, the treatment groups were administered with test peptides (0.6 & 1.2 mg/kg) and the standard drug through the subcutaneous & Intravenous route. To reduce variability between studies, the CLP method was always carried out by the same investigators. [Zingarelli B et al., Libert C et al., Hellman J et al., 2019].
Mice were subjected to CLP surgery and were discarded if they died during the procedure. In all the animal experiments, the test peptide IS 111 was administered by injections respectively; According to the clinical dosage regimen, IS 111 was repeatedly administered at 2 h after CLP surgery and recovery of animals from anesthesia. The mice were divided into the following treatment groups at random: BALB/c mice are used for Intravenous (IV) route of administration. In each group the half of the animals were killed after 4 and 18 hours, [Hubbard, W. J 2005; Rittirsch D 2009]. In another half of the animals, IS 111 at two doses 0.6 & 1.2 mg/kg were injected IV daily for 5 days following CLP. 0.9% Normal saline was administered in the sham group. The survival of mice was monitored for up to 18 h and the other half of the animals are continued for the survival monitored up to 7 days.
In the survival study, survival rates were determined by setting the day 0 from 0 to 18 h after surgery and continuing observation until day 7. In one set of animals/group, survival was monitored every 4 h up to 18 h and in another half subset of animals was followed for 5 days for survival assessment every 12 h after sepsis induction to verify mortality rates. The time of death was recorded as accurately as possible.
The physical activity of the mice was recorded independently by two independent observers who were blinded to treatment before sampling as previously described. In this study predetermined grading system was used with a scale of 1 (healthy) to 5 (agony). This scoring system is based on grading physical activity and food intake (table 16) using spontaneous activity of mice, reactivity to external stimuli, and spontaneous food intake to differentiate between grades 1 and 5. […]

[2] = system: LPS-stimulated RAW 264.7 cells; assay: RT-qPCR of cytokine mRNA in LPS-stimulated RAW 264.7 cells; type: cell-based, murine; details: vs LPS control
Procedure: Total cellular RNA was isolated using the RNA isoplus reagent (Takara Bioscience, India) following the manufacturer's instructions. RNA was quantified spectrophotometrically by absorption measurements at 260 and 280 nm using the nano drop system.
As per table 8, RNA and the reaction mixture were mixed in PCR a tube and incubated in a thermal cycler for 5 min at 65° C. in and then cooled immediately on ice. Further, in the same tube, the step 2 reaction mixture was added and further incubated in the thermal cycler as mentioned below.
Primers were designed using the Primer3 online tool. GAPDH was used as a normalizing control. The sequence of primers used is provided in below table 10. Real-Time PCR was performed according to the manufacturer's protocol using Takara biosystem's real-time PCR mix (Takara, Bio-India) with ROX as a passive reference dye using applied Biosystem's step-one Real-Time PCR system. The following PCR program was used for all real-time PCR-based experiments: initial denaturation at 95° C. for 2 minutes, followed by 40 cycles of denaturation at 95° C. for 15 seconds, annealing at 60° C. for 30 seconds, extension at 60° C. for 15 seconds.
For quantification of gene expression, CT values of each gene were normalized to GAPDH and calibrated to the appropriate control sample using the SYBR Green-based comparative CT method (2-ΔΔCt). Fold change was calculated using the formula 2-ΔΔct.

## FAKKFAK [IS 111, Phe-Ala-Lys-Lys-Phe-Ala-Lys]
[1]; 0.6 mg/Kg, 18 h after CLP, scale 1 (very active) to 5 (lethargic)
  Activity index: 2.8 ± 0.5 Grade points
[1]; 0.6 mg/kg, 18 h
  Lung histology: Mild lung oedema, haemorrhage, and inflammatory cell infiltration
[1]; 24-48 h after CLP, treatment 2 h after CLP
  Serum IL-10: significant decrease
[1]; 18 h after CLP
  Bacterial growth in the peritoneum / bacterial counts: inhibited; also recorded: ↓bacterial counts; ↓liver & kidney
[1]; 18 h after CLP surgery
  Body temperature: in range of normal values
[1]; 18 h after CLP, IV
  IL-10 levels in serum: increased slightly and 6 and IL-12, &↑IL-10 in serum;
[1]; 7 days
  Survival percentage: 80%
[1]; IS 111-treated mice
  Myeloperoxidase levels in the lung: significantly decreased
[1]; vs diseased control animals (normal saline)
  Reduction of mortality: 80%
[1]; ~60 h post-CLP (last death in disease control group)
  Mice still surviving: 80%
[2]; dose dependent
  CCL2 mRNA expression: reduction
[2]
  IL-1β mRNA expression: dose dependently reduced
  IL-6 mRNA expression: significant reduction
  TNF-α mRNA expression: significant reduction
